In patent US20030175912A1, “Method of producing L-serine by fermentation” (AJINOMOTO CO. INC, priority 1998, published 2003):

Columns and labels:
[1] = system: Brevibacterium flavum AJ13325; test: Growth in the presence of β-(2-thienyl)-DL-alanine; assay type: cell-based; conditions: 0.25 g/L of β-(2-thienyl)-DL-alanine
Protocol: Similarly, the term “β-(2-thienyl)-DL-alanine resistance” refers to the property that a bacterium grows faster than the wild type in a medium containing β-(2-thienyl)-DL-alanine. For example, those strains that form colonies on a solid medium containing 0.25 g/L of β-(2-thienyl)-DL-alanine at 30° C. within 4 to 5 days are said to have β-(2-thienyl)-DL-alanine resistance.
(§1) To select β-(2-thienyl)-DL-alanine resistant strains from NG treated strains using Brevibacterium flavum AJ13377 as a parent strain, Brevibacterium flavum AJ13377 cells were NG treated and washed before their inoculation on a minimal medium for selection. The minimal medium for selection was a medium that contained 20 g of glucose, 1 g of ammonium sulfate, 1 g of potassium dihydrogen phosphate, 2.5 g of urea, 0.4 g of magnesium sulfate heptahydrate, 0.01 g of iron (II) sulfate heptahydrate, 0.01 g of manganese sulfate tetra- to pentahydrate, 50 μg of biotin, 200 μg of thiamin hydrochloride, 200 μg of nicotinic acid amide, and 250 mg of β-(2-thienyl)-DL-alanine per liter of distilled water. The NG treated mutant was incubated in the above-described medium at 30° C. for 5 to 10 days. The cell culture thus obtained was spread on a bouillon agar medium and incubated at 30° C. for 24 hours for colony formation. β-(2-Thienyl)-DL-alanine resistant strains were obtained from the strains that formed colonies. […]

[2] = system: 3-PGDH derived from AJ13325 strain; test: Feedback inhibition of 3-PGDH by L-serine, enzyme of AJ13325; assay type: biochemical, Brevibacterium flavum; conditions: compared with AJ13324; FIG. 1
Protocol: (§2) After collecting cells from the culture broth of each strain, the cells were washed twice with physiological saline and suspended in 50 mM sodium phosphate buffer (pH 7.0) containing 2 mM dithiothreitol. After ice cooling, the suspension was subjected to a sonicator to fragment the cells and the resulting liquid was ultracentrifuged. The ultracentrifugaton was run at 45,000 rpm for 1 hour to obtain a crude enzyme solution.
(§3) The enzyme activity of 3-PGDH was measured by the method of Salach H. J. et al. (Method in Enzymology, vol 9, 216-220 (1966)).
(§4) More specifically, 0.4 ml of 0.015 M NAD, 0.12 ml of 0.25 M EDTA (pH 9, NaOH), 0.1 ml of 0.05 M glutathione (pH 6, KOH), 0.5 ml of 1 M hydrazine (pH 9, acetate), 0.6 ml of 1 M Tris (pH 9, HCl), a suitable concentration of L-serine (0 to 40 mM), and water to make 2.3 ml, warmed to 25° C. in advance, were added. Then, 0.2 ml of the crude enzyme solution was added and the temperature was kept the same for 5 minutes. Thereafter, 0.5 ml of 0.1 M 3-PGA (3-phosphoglycerate disodium salt, pH 7, NaOH) was added. After stirring, the absorbance at 340 nm of the reaction mixture was measured for 30 seconds. The reaction was carried out at 25° C.
(§5) For the measurement of activity, Hitachi U-2000A spectrophotometer was used.

[3] = system: 3-PGDH derived from AJ13377 strain; test: Feedback inhibition of 3-PGDH by L-serine, enzyme of AJ13377; assay type: biochemical, Brevibacterium flavum; conditions: compared with wild type strain ATCC 14067; FIG. 1
Protocol: as §2, §3, §4, §5

[4] = system: 3-PGDH derived from AJ13324 strain; test: Feedback inhibition of 3-PGDH by L-serine, enzyme of AJ13324; assay type: biochemical, Brevibacterium flavum; conditions: compared with AJ13377; FIG. 1
Protocol: as §2, §3, §4, §5

[5] = system: 3-PGDH derived from Brevibacterium flavum AJ13327; test: Feedback inhibition of 3-PGDH by L-serine, enzyme of AJ13327; assay type: biochemical
Protocol: as §2, §3
[…] Then, 0.2 ml of the crude enzyme solution was added and the temperature was kept the same for 5 minutes. Thereafter, 0.5 ml of 0.1 M 3-PGA (3-phosphoglycerate disodium salt, pH 7, NaOH) was added. After stirring, the absorbance at 340 nm of the reaction mixture was measured for 30 seconds. The reaction was carried out at 25° C.
as §5

[6] = system: 3-PGDH derived from a wild type coryneform bacterium (ATCC 14067); test: Feedback inhibition of 3-PGDH by L-serine, enzyme of wild type strain; assay type: biochemical, Brevibacterium flavum; conditions: 10 mM of L-serine
Protocol: as §2, §3, §4, §5

[7] = system: Brevibacterium flavum AJ13324 and AJ13327; test: Growth in the presence of azaserine; assay type: cell-based; conditions: 0.25 g/L of azaserine
Protocol: More specifically, for example, the term “azaserine resistance” refers to the property that a bacterium grows faster than the wild type in a medium containing azaserine. For example, those strains that form colonies on a solid medium containing 0.25 g/L of azaserine at 30° C. within 4 to 5 days are said to have azaserine resistance.
as §1, with “azaserine” for “β-(2-thienyl)-DL-alanine”, “strain, NG treated” for “strain,”, “cells after washed” for “cells”, “inoculated” for “NG treated and washed before their inoculation”, “Azaserine” for “β-(2-Thienyl)-DL-alanine”, “colonies. The mutants thus obtained included many strains that accumulated L-serine in considerable amounts at high yields.” for “colonies.”

NC(Cc1cccs1)C(=O)O (racemic) [β-(2-thienyl)-DL-alanine]
growth of resistant strains in the presence of β-(2-thienyl)-DL-alanine [1]: able to grow

N[C@@H](CO)C(=O)O [L-serine]
L-serine sensitivity of 3-PGDH [2]: of the same level as the AJ13324 strain | L-serine sensitivity of 3-PGDH [3]: relieved of L-serine sensitivity | L-serine sensitivity of 3-PGDH [4]: more relieved of L-serine sensitivity | feedback inhibition of 3-PGDH by L-serine ([5]; 80 mM L-serine, FIG. 1): completely desensitized | 3-PGDH activity retained in the presence of L-serine ([5]; 80 mM of L-serine, relative to activity in the absence of L-serine): ~100% | inhibition of 3-PGDH activity by L-serine [6]: almost completely inhibited

[N-]=[N+]=CC(=O)OC[C@H](N)C(=O)O [azaserine]
growth of resistant strains in the presence of azaserine [7]: able to grow
